Data on 19 compounds can be found in US12649733B2, “3,6-diamino-pyridazin-3-yl derivatives, pharmaceutical compositions containing them and their uses as pro-apoptotic agents” (LES LABORATOIRES SERVIER, priority 2019, dated 2026).

The target in assay [1] is T1, BCLXL (Homo sapiens, UniProt Q07817, V10N/V9A). Put plainly: Fluorescence polarisation assay (PUMA-based probe displacement). Note: 20 nM protein, 10 nM fluorescent probe. Format: binding. (In general: Polarisation of emitted light reports the rotation of a fluorescent probe.)
Assay [2] deals with T1, BCLXL. Put plainly: AlphaLISA assay (BIM peptide displacement). The note with it: 20 pM protein, 1 nM peptide. Format: binding. Here is the method:
AlphaLISA assay measures an increase in alpha signal upon binding biotinylated GST(1-218)-(FACTOR_XA)-hs ? (2-209)(SEQ ID:02—GST UniProtKB® primary accession number P08515 and BCLXL UniProtKB® primary accession number Q07817-1) coupled to a Streptavidin labeled Alpha donor bead to N-terminally labeled peptide derived from BIM (Fluorescein-betaAla-Ahx-SEQID:05, wherein SEQ ID:05 is […]) coupled to an Anti-FTIC AlphaLISA acceptor bead.
GST(1-218)(FACTOR_XA)-hs ? (2-209) was biotinylated in 50 mM phosphate buffer using a 20 fold excess of EZ Link NHS-LC-Biotin (thermoFisher catalogue number 21336) overnight at 4° C.
The addition of a compound which binds competitively to the same site as the peptide will result in an decrease in the Alpha signal of the available donor bead-protein-peptide-acceptor bead complex due to displacement of the peptide.
An 11-point serial dilution of each compound was prepared in DMSO, the final buffer conditions were 10 mM 4-(2-hydroxyethyl)-1-piperazineethanesulfonic acid [HEPES], 150 mM NaCl, 0.05% Tween 20, pH 7.4 and 4% DMSO. The final protein concentration in the assay was 20 pM with the peptide present at 1 nM). Alpha beads were used at a final concentration of 5 ug/mL. The experiments were incubated for overnight at 23° C. after acceptor bead addition. Finally the donor bead is added and incubated for 2 hours at 23° C. before Alpha signal measured on a Biotek Synergy2 plate reader (Excitation 680 nm, emission 615 nm).
On the technique in general: Alpha assays give light when donor and acceptor beads are brought close together.

Assay [3] has as its system MOLT-4 cells. Put plainly: MOLT-4 cell viability, MTT assay. To be noted: Homo sapiens, MOLT-4, 48 h, 48 h exposure. The assay is classed as cell-based. An outline of the steps: (§1)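 Viability read by MTT reduction (OD 540 nm after overnight SDS/HCl lysis) after 48 h compound treatment of cells in RPMI 1640/10% FBS. Triplicates at nine concentrations, 3.16-fold apart; four-parameter curve fitting yields IC50.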
In general terms: Formazan colour is commonly taken as a measure of viable cells.

The test system of assay [4] is H146 cells. Put plainly: H146 cell viability, MTT assay. Format: cell-based. To be noted: Homo sapiens, NCI-H146, 48 h, 48 h exposure. A digest of the protocol:
as §1

The term Ki denotes the dissociation constant of the complex between target and ligand, obtained from inhibition or displacement. By IC50 is commonly meant the concentration that inhibits the measured activity by half.

T1 sequence (Q07817 with tags, fused parts or gaps V9A/V10N): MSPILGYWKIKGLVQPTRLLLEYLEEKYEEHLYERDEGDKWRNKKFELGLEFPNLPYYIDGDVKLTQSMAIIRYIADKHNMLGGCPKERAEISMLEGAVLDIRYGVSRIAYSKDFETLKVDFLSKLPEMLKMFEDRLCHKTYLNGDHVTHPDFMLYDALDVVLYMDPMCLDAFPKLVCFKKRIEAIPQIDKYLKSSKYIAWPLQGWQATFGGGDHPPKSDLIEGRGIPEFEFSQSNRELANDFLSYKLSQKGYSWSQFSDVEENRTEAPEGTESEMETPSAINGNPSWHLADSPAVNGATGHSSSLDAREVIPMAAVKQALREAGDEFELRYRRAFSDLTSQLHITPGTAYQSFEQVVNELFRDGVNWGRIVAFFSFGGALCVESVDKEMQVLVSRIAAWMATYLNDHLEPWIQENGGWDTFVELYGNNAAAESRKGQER

For `Cc1c(Nc2nc(C(=O)O)c(CCCOc3ccc(C#CCN(C)C)cc3F)s2)nnc(Nc2nc3ccccc3s2)c1C` [Example 3, 2-({6-[(1,3-Benzothiazol-2-yl)amino]-4,5-dimethylpyridazin-3-yl}amine)-5-(3-{4-[3-(dimethylamino)prop-1-yn-1-yl]-2-fluorophenoxy}propyl)-1,3-thiazole-4-carboxylic acid], in assay [1], the Ki came out at 1.9 nM. Further, the values for the IC50 in assay [2], in assay [3] and in assay [4] were 0.096 nM, 90 nM and 42 nM, respectively.

Turning to `COCCCN(c1cc(C)c(Nc2nc3ccccc3s2)nn1)c1nc(C(=O)O)c(CCCOc2ccc(C#CCN(C)C)cc2F)s1` [Example 54, 2-({6-[(1,3-Benzothiazol-2-yl)amino]-5-methylpyridazin-3-yl}(3-methoxypropyl)amino)-5-(3-{4-[3-(dimethylamino)prop-1-yn-1-yl]-2-fluorophenoxy}propyl)-1,3-thiazole-4-carboxylic acid], in assay [1], the inhibition constant Ki came to 1.4 nM. Also, the values for the IC50 in assay [2], in assay [3] and in assay [4] were 0.025 nM, 5.07 nM and 35.2 nM, respectively.

On to `Cc1cc(N(C)c2nc(C(=O)O)c(CCCOc3ccccc3F)s2)nnc1Nc1nc2ccccc2s1` [Example 59, 2-({6-[(1,3-Benzothiazol-2-yl)amino]-5-methylpyridazin-3-yl}(methyl)amino)-5-[3-(2-fluorophenoxy)propyl]-1,3-thiazole-4-carboxylic acid], for which the inhibition constant Ki in assay [1] was under 1 nM. Further, the IC50 in assay [2] was 0.14 nM; in assay [3], 76.1 nM; in assay [4], 271 nM.

On to `COCCCc1sc(N(C)c2cc(C)c(Nc3nc4ccccc4s3)nn2)nc1C(=O)O` [Example 60, 2-({6-[(1,3-Benzothiazol-2-yl)amino]-5-methylpyridazin-3-yl}(methyl)amino)-5-(3-methoxypropyl)-1,3-thiazole-4-carboxylic acid], for which the Ki in assay [1] came out at 1.5 nM. In addition, the IC50 was 0.96 nM in assay [2], 2740 nM in assay [3] and 5800 nM in assay [4].

As for `Cc1cc(N(C)c2nc(C(=O)O)c(CCCOc3ccccc3)s2)nnc1Nc1nc2ccccc2s1` [Example 63, 2-({6-[(1,3-Benzothiazol-2-yl)amino]-5-methylpyridazin-3-yl}(methyl)amino)-5-(3-phenoxypropyl)-1,3-thiazole-4-carboxylic acid], the Ki in assay [1] is under 1 nM. Moreover, the IC50 in assay [2] was 0.1 nM; in assay [3] it was 85.3 nM; in assay [4], 205 nM.

In the case of `COCCCN(c1cc(C)c(Nc2nc3ccccc3s2)nn1)c1nc(C(=O)O)c(CCCOc2ccccc2)s1` [Example 65, 2-{[6-[(1,3-Benzothiazol-2-yl)amino]-5-methylpyridazin-3-yl}(3-methoxypropyl)amino)-5-(3-phenoxypropyl)-1,3-thiazole-4-carboxylic acid], the Ki in assay [1] is under 1 nM. Moreover, the IC50 was 1 nM in assay [2], 236 nM in assay [3] and 865 nM in assay [4].

Consider `Cc1cc(N(CCC(O)CO)c2nc(C(=O)O)cs2)nnc1Nc1nc2ccccc2s1` (centres unmarked) [Example 85, 2-[[6-(1,3-Benzothiazol-2-ylamino)-5-methyl-pyridazin-3-yl]-(3,4-dihydroxybutyl)amino]thiazole-4-carboxylic acid], for which, in assay [1], the Ki is under 1 nM. For the same compound, the IC50 in assay [2] is 12 nM; in assay [3], over 15000 nM; in assay [4], over 15000 nM.

For the compound `Cc1cc(N(C)c2nc(C(=O)O)c(C3CCN(C(=O)c4ccccc4)CC3)s2)nnc1Nc1nc2ccccc2s1` [Example 89, 5-(1-Benzoylpiperidin-4-yl)-2-({6-[(1,3-benzothiazol-2-yl)amino]-5-methylpyridazin-3-yl}(methyl)amino)-1,3-thiazole-4-carboxylic acid], the Ki in assay [1] amounted to 160 nM. Besides, the results for the IC50 in assay [2], in assay [3] and in assay [4] were 150 nM, 13100 nM and over 15000 nM, respectively.

`Cc1cc(N(C)c2ccc(-c3cnn(CC45CC6CC(CC(C6)C4)C5)c3C)c(C(=O)O)n2)nnc1Nc1nc2ccccc2s1` [Example 90, 3-{1-[(Adamantan-1-yl)methyl]-5-methyl-1H-pyrazol-4-yl}-6-({6-[(1,3-benzothiazol-2-yl)amino]-5-methylpyridazin-3-yl}(methyl)amino)pyridine-2-carboxylic acid]: in assay [1], the Ki is under 1 nM. Besides, the IC50 in assay [2] was 0.023 nM; in assay [3] it was 23.3 nM; in assay [4] it was 201 nM.

As to `Cc1cc(N(C)c2nc(C(=O)O)c(C3CCN(c4ccccc4)CC3)s2)nnc1Nc1nc2ccccc2s1` [Example 91, 2-({6-[(1,3-Benzothiazol-2-yl)amino]-5-methylpyridazin-3-yl}(methyl)amino)-5-(1-phenylpiperidin-4-yl)-1,3-thiazole-4-carboxylic acid], in assay [1], the Ki was found to be 6.4 nM. Also, the IC50 was found to be 5.3 nM in assay [2], 1130 nM in assay [3] and 5390 nM in assay [4].

Take `Cc1cc(N(C)c2nc(C(=O)O)c(C3CCN(S(=O)(=O)c4ccccc4)CC3)s2)nnc1Nc1nc2ccccc2s1` [Example 92, 5-[1-(Benzenesulfonyl)piperidin-4-yl]-2-({6-[(1,3-benzothiazol-2-yl)amino]-5-methylpyridazin-3-yl}(methyl)amino)-1,3-thiazole-4-carboxylic acid]: the Ki in assay [1] amounted to 68 nM. The IC50 in assay [2] was 46 nM; in assay [3] it was over 15000 nM; in assay [4] it was over 15000 nM.

As to `Cc1cc(N(C)c2nc(C(=O)O)c(C3CCN(C(=O)Cc4ccccc4)CC3)s2)nnc1Nc1nc2ccccc2s1` [Example 96, 2-({6-[(1,3-Benzothiazol-2-yl)amino]-5-methylpyridazin-3-yl}(methyl)amino)-5-[1-(2-phenylacetyl)piperidin-4-yl]-1,3-thiazole-4-carboxylic acid], in assay [1], the Ki was 220 nM. The IC50 in assay [2] was found to be 270 nM.

In the case of `CC(=O)N1CCC(c2sc(N(C)c3cc(C)c(Nc4nc5ccccc5s4)nn3)nc2C(=O)O)CC1` [Example 97, 5-(1-Acetylpiperidin-4-yl)-2-({6-[(1,3-benzothiazol-2-yl)amino]-5-methylpyridazin-3-yl}(methyl)amino)-1,3-thiazole-4-carboxylic acid], the Ki in assay [1] came to 130 nM. Besides, the IC50 in assay [2] stood at 210 nM.

As to `Cc1cc(N(C)c2nc(C(=O)O)c(C3CN(C(=O)Cc4ccccc4)C3)s2)nnc1Nc1nc2ccccc2s1` [Example 138, 2-({6-[(1,3-Benzothiazol-2-yl)amino]-5-methylpyridazin-3-yl}(methyl)amino)-5-[1-(2-phenylacetyl)azetidin-3-yl]-1,3-thiazole-4-carboxylic acid], in assay [1], the Ki worked out at 29 nM. In assay [2], the IC50 was determined as 11 nM.

As to `Cc1cc(N(C)c2nc(C(=O)O)c(C3CNC3)s2)nnc1Nc1nc2ccccc2s1` [Example 139, 5-(Azetidin-3-yl)-2-({6-[(1,3-benzothiazol-2-yl)amino]-5-methylpyridazin-3-yl}(methyl)amino)-1,3-thiazole-4-carboxylic acid], in assay [1], the Ki stood at 640 nM. The IC50 in assay [2] stood at 270 nM.

For `Cc1cc(N(CCCC(O)CN(C)CCN(C)C)c2nc(C(=O)O)cs2)nnc1Nc1nc2ccccc2s1` (centres unmarked) [Example 142, 2-[[6-(1,3-Benzothiazol-2-ylamino)-5-methyl-pyridazin-3-yl]-[5-[2-(dimethylamino)ethyl-methyl-amino]-4-hydroxy-pentyl]amino]thiazole-4-carboxylic acid], the Ki in assay [1] turned out to be 50 nM. Besides, in assay [2], the IC50 stood at 10 nM.

`Cc1cc(N(C)c2nc(C(=O)O)c(C3CN(Cc4ccccc4)C3)s2)nnc1Nc1nc2ccccc2s1` [Example 145, 2-({6-[(1,3-Benzothiazol-2-yl)amino]-5-methylpyridazin-3-yl}(methyl)amino)-5-(1-benzylazetidin-3-yl)-1,3-thiazole-4-carboxylic acid]: the Ki in assay [1] came to 180 nM. For the same compound, the IC50 in assay [2] was 190 nM.

As for `Cc1cc(N(CCCCO)c2nc(C(=O)O)c(CCCOc3ccc(C#CCN(C)CCCS(=O)(=O)O)cc3F)s2)nnc1Nc1nc2ccccc2s1` [Example 151, 2-[[6-(1,3-Benzothiazol-2-ylamino)-5-methyl-pyridazin-3-yl]-(4-hydroxybutyl)amino]-5-[3-[2-fluoro-4-[3-[methyl(3-sulfopropyl)amino]prop-1-ynyl]phenoxy]propyl]thiazole-4-carboxylic acid], the Ki in assay [1] was under 1 nM. For the same compound, the concentration for half-maximal inhibition (IC50) in assay [2] is 0.005 nM; in assay [3], 194 nM.

In the case of `C/C(=C\c1sc(N(C)c2cc(C)c(Nc3nc4ccccc4s3)nn2)nc1C(=O)O)COc1ccccc1` [Example 162, 2-({6-[(1,3-Benzothiazol-2-yl)amino]-5-methylpyridazin-3-yl}(methyl)amino)-5-[(1E)-2-methyl-3-phenoxyprop-1-en-1-yl]-1,3-thiazole-4-carboxylic acid], the half-maximal inhibitory concentration (IC50) in assay [2] is 1.9 nM; in assay [3], 3170 nM; in assay [4], 6590 nM.
